# ChEMBL document CHEMBL3763148, “Synthesis, structure elucidation, DNA-PK and PI3K and anti-cancer activity of 8- and 6-aryl-substituted-1-3-benzoxazines” (Eur J Med Chem, 2016)
# How the values were obtained:
# [1] = biological target: T1, Phosphatidylinositol 4,5-bisphosphate 3-kinase catalytic subunit delta isoform (Homo sapiens, UniProt O00329); assay: Inhibition of PI3Kdelta (unknown origin) incubated for 60 mins by kinase-glo luminescence assay
# T1 sequence (O00329 whole entry): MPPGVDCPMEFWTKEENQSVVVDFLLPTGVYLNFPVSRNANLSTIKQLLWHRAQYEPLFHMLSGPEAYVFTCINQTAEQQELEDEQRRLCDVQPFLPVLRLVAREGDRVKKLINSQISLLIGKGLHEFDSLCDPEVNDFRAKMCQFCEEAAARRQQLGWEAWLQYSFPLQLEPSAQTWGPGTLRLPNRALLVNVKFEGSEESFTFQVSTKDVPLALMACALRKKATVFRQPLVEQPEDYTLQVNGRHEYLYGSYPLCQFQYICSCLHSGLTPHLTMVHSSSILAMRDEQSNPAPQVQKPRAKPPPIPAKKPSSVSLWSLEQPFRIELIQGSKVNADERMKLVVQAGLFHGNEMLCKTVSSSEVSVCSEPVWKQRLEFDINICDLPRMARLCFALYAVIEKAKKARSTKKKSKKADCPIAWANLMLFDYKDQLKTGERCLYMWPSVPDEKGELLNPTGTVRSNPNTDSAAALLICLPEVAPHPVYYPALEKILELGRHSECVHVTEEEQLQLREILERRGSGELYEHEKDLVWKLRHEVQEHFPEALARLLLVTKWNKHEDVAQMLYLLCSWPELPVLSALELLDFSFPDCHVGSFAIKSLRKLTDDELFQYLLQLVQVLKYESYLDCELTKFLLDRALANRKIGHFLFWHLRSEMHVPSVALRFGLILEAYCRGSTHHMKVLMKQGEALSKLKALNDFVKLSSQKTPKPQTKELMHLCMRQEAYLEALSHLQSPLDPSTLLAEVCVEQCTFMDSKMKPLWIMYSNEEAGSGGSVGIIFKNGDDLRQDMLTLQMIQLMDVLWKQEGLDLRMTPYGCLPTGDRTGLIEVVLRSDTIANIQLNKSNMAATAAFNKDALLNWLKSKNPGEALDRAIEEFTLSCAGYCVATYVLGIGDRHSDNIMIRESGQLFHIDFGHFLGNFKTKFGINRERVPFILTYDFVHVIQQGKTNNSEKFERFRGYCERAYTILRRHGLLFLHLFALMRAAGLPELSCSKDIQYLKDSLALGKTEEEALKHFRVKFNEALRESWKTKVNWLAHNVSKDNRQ
# CCRF-CEM = assay: Cytotoxicity against human CCRF-CEM cells assessed as cell growth inhibition at 10 uM after 48 hrs by SRB assay relative to control; assay type: functional; conditions: read-out: GI
# K562 = assay: Cytotoxicity against human K562 cells assessed as cell growth inhibition at 10 uM after 48 hrs by SRB assay relative to control; assay type: functional; conditions: K562, 48 h, read-out: GI
# A549 = assay: Cytotoxicity against human A549 cells assessed as cell growth inhibition at 10 uM after 48 hrs by SRB assay relative to control; assay type: functional; conditions: A549, 48 h, read-out: GI
# EKVX = assay: Cytotoxicity against human EKVX cells assessed as cell growth inhibition at 10 uM after 48 hrs by SRB assay relative to control; assay type: functional; conditions: read-out: GI
# [2] = Cytotoxicity against human HOP62 cells assessed as cell growth inhibition at 10 uM after 48 hrs by SRB assay relative to control; assay type: functional; conditions: HOP-62, 48 h, read-out: GI
# NCI-H226 = assay: Cytotoxicity against human NCI-H226 cells assessed as cell growth inhibition at 10 uM after 48 hrs by SRB assay relative to control; assay type: functional; conditions: NCI-H226, 48 h, read-out: GI
# NCI-H460 = assay: Cytotoxicity against human NCI-H460 cells assessed as cell growth inhibition at 10 uM after 48 hrs by SRB assay relative to control; assay type: functional; conditions: NCI-H460, 48 h, read-out: GI
# [3] = Cytotoxicity against human HCT116 cells assessed as cell growth inhibition at 10 uM after 48 hrs by SRB assay relative to control; assay type: functional; conditions: HCT-116, 48 h, read-out: GI
# [4] = Cytotoxicity against human HCT15 cells assessed as cell growth inhibition at 10 uM after 48 hrs by SRB assay relative to control; assay type: functional; conditions: HCT-15, 48 h, read-out: GI
# KM12 = assay: Cytotoxicity against human KM12 cells assessed as cell growth inhibition at 10 uM after 48 hrs by SRB assay relative to control; assay type: functional; conditions: KM12, 48 h, read-out: GI
# [5] = Cytotoxicity against human SF295 cells assessed as cell growth inhibition at 10 uM after 48 hrs by SRB assay relative to control; assay type: functional; conditions: SF-295, 48 h, read-out: GI
# [6] = Cytotoxicity against human SNB75 cells assessed as cell growth inhibition at 10 uM after 48 hrs by SRB assay relative to control; assay type: functional; conditions: SNB-75, 48 h, read-out: GI
# [7] = Cytotoxicity against human LOXIMVI cells assessed as cell growth inhibition at 10 uM after 48 hrs by SRB assay relative to control; assay type: functional; conditions: LOX IMVI, read-out: GI
# M14 = assay: Cytotoxicity against human M14 cells assessed as cell growth inhibition at 10 uM after 48 hrs by SRB assay relative to control; assay type: functional; conditions: M14, 48 h, read-out: GI
# SK-MEL-2 = assay: Cytotoxicity against human SK-MEL-2 cells assessed as cell growth inhibition at 10 uM after 48 hrs by SRB assay relative to control; assay type: functional; conditions: SK-MEL-2, 48 h, read-out: GI
# [8] = Cytotoxicity against human UACC62 cells assessed as cell growth inhibition at 10 uM after 48 hrs by SRB assay relative to control; assay type: functional; conditions: UACC-62, 48 h, read-out: GI
# [9] = Cytotoxicity against human IGROV1 cells assessed as cell growth inhibition at 10 uM after 48 hrs by SRB assay relative to control; assay type: functional; conditions: IGROV-1, 48 h, read-out: GI
# [10] = Cytotoxicity against human OVCAR5 cells assessed as cell growth inhibition at 10 uM after 48 hrs by SRB assay relative to control; assay type: functional; conditions: OVCAR-5, 48 h, read-out: GI
# [11] = Cytotoxicity against human UO31 cells assessed as cell growth inhibition at 10 uM after 48 hrs by SRB assay relative to control; assay type: functional; conditions: UO-31, 48 h, read-out: GI
# [12] = Cytotoxicity against human PC3 cells assessed as cell growth inhibition at 10 uM after 48 hrs by SRB assay relative to control; assay type: functional; conditions: PC-3, 48 h, read-out: GI
# [13] = Cytotoxicity against human DU145 cells assessed as cell growth inhibition at 10 uM after 48 hrs by SRB assay relative to control; assay type: functional; conditions: DU-145, 48 h, read-out: GI
# MDA-MB-231 = assay: Cytotoxicity against human MDA-MB-231 cells assessed as cell growth inhibition at 10 uM after 48 hrs by SRB assay relative to control; assay type: functional; conditions: MDA-MB-231, 48 h, read-out: GI
# T47D = assay: Cytotoxicity against human T47D cells assessed as cell growth inhibition at 10 uM after 48 hrs by SRB assay relative to control; assay type: functional; conditions: read-out: GI
Structure (SMILES),IC50 [1],inhibition of growth at 10 µM (CCRF-CEM),inhibition of growth at 10 µM (K562),inhibition of growth at 10 µM (A549),inhibition of growth at 10 µM (EKVX),inhibition of growth at 10 µM [2],inhibition of growth at 10 µM (NCI-H226),inhibition of growth at 10 µM (NCI-H460),inhibition of growth at 10 µM [3],inhibition of growth at 10 µM [4],inhibition of growth at 10 µM (KM12),inhibition of growth at 10 µM [5],inhibition of growth at 10 µM [6],inhibition of growth at 10 µM [7],inhibition of growth at 10 µM (M14),inhibition of growth at 10 µM (SK-MEL-2),inhibition of growth at 10 µM [8],inhibition of growth at 10 µM [9],inhibition of growth at 10 µM [10],inhibition of growth at 10 µM [11],also measured
NC(=O)c1ccc(-c2cccc3c(=O)nc(N4CCOCC4)oc23)cc1,> 10 µM,1.37%,-10.4%,-0.08%,2.66%,4.92%,17.4%,-5.06%,-3.97%,-2.19%,2.45%,6.07%,25.5%,8.86%,2.25%,-2.17%,7.72%,-3.1%,3.19%,10.8%,inhibition of growth at 10 µM [12]: 10.1%; inhibition of growth at 10 µM [13]: -3.19%; inhibition of growth at 10 µM (MDA-MB-231): 8.08%; inhibition of growth at 10 µM (T47D): 12.2%
O=c1nc(N2CCOCC2)oc2c(-c3cccc4c3oc3ccccc34)cccc12,12 µM,11.6%,19.4%,12%,18.2%,13%,27.7%,-2.97%,6.54%,13.1%,12.7%,0.3%,41.5%,39.2%,-2.42%,-4.28%,37.4%,0.3%,10.7%,40.1%,inhibition of growth at 10 µM [12]: 23.2%; inhibition of growth at 10 µM [13]: 1.77%; inhibition of growth at 10 µM (MDA-MB-231): 18%; inhibition of growth at 10 µM (T47D): 15.1%
